Some test systems named below: A549; ACHN; HCT-15; HL-60; HOP-62; MOLT-4; NCI-H226; NCI-H460; OVCAR-3; RXF 393; SF-539; SN12C; SNB-19; SNB-75; UO-31; SF-268; SK-MEL-28.
Experiment in all cases: NCI anticancer screen, dose series, 48 h

Values joined by “and” are separate entries in the source; they are usually repeats but may differ in a detail not shown here. Identical values can stand only once.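 Values below derive from 48-hour exposures of cells grown in 96-well plates, with endpoints linearly interpolated between the two concentrations bracketing the appropriate inhibition level. GI50 = concentration required for 50% inhibition of growth.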 Active and inactive are the calls of the source. No stated cut-off is given here; in the data, active = GI50 up to about 1.1 µM and inactive = higher. A value given as a limit tells only on which side of the number the result lay.

For the molecule `O=c1[nH]ccc(CNC23CC4CC(CC(C4)C2)C3)c1O`, the GI50 was > 100 µM (inactive) with A549; 93.5 µM (inactive) with ACHN; 41.8 µM with HCT-15; 41.3 µM (inactive) in the experiment on HL-60; > 100 µM (inactive) in the experiment on HOP-62; 55.7 µM (inactive) with MOLT-4. Moreover, the GI50 is > 100 µM (inactive) with NCI-H226; 79.3 µM (inactive) in the experiment on NCI-H460; > 100 µM (inactive) in the experiment on OVCAR-3; 48.4 µM (inactive) with RXF 393; > 100 µM (inactive) in the experiment on SF-539; 45.8 µM (inactive) with SN12C. For the same molecule, the GI50 in the experiment with SNB-19 was > 100 µM (inactive); in the experiment on SNB-75, > 100 µM (inactive); with UO-31, 88.3 µM (inactive).
For the molecule `CC(C)c1cccc(C(C)C)c1NC(=O)/C(Cc1nc2ccc(Cl)cc2nc1O)=N\NC(=O)C[N+](C)(C)C`, the GI50 in the experiment on A549, in the experiment on ACHN, in the experiment on HL-60, in the experiment with HOP-62, in the experiment with MOLT-4 and in the experiment on NCI-H460 was > 100 µM (inactive) throughout. In addition, the GI50 in the experiment with OVCAR-3, in the experiment on RXF 393, in the experiment with SF-268, with SF-539, in the experiment on SK-MEL-28 and in the experiment on SN12C was > 100 µM (inactive) throughout. The figures for the GI50 with SNB-19 and with UO-31 were > 100 µM (inactive) and 76.7 µM (inactive), respectively.
Turning to `O=C1NC2C(O)CCCCC2C12CCCCC2` (stereo not drawn), the GI50 was > 100 µM (inactive) in the experiment on A549; > 100 µM (inactive) in the experiment with ACHN; more than 100 µM in the experiment with HCT-15; > 100 µM (inactive) in the experiment on HL-60; > 100 µM (inactive) in the experiment on HOP-62; > 100 µM (inactive) in the experiment on MOLT-4. For the same molecule, the GI50 with NCI-H460, in the experiment on OVCAR-3, in the experiment on RXF 393, in the experiment on SF-268, in the experiment with SF-539 and in the experiment with SK-MEL-28 was > 100 µM (inactive) throughout. Besides, the GI50 with SN12C, with SNB-19, in the experiment on SNB-75 and in the experiment on UO-31 was > 100 µM (inactive) throughout.
Turning to `CCC1OCCN1C(C)C` (stereo not drawn), the GI50 is > 100 µM (inactive) in the experiment on A549; > 100 µM (inactive) in the experiment with ACHN; 81.1 µM with HCT-15; > 100 µM (inactive) in the experiment on HL-60; > 100 µM (inactive) with MOLT-4; 63.1 µM (inactive) in the experiment with NCI-H460. Moreover, the GI50 with RXF 393 was > 100 µM (inactive); in the experiment on SF-268, > 100 µM (inactive); with SF-539, > 100 µM (inactive); with SK-MEL-28, 32.8 µM (inactive); in the experiment with SN12C, > 100 µM (inactive); in the experiment on SNB-19, > 100 µM (inactive). For the same molecule, the GI50 with UO-31 was 96.6 µM (inactive).
Regarding `COc1ccc2cc1Oc1ccc(cc1)C[C@H]1c3cc(c(OC)cc3CCN1C)Oc1c(OC)c(OC)cc3c1[C@H](C2)N(C)CC3` [FANCHININ], the GI50 in the experiment with ACHN is 7.93 µM (inactive) and 17.1 µM (inactive); in the experiment on HCT-15, 7.78 µM; in the experiment on HL-60 it was 7.8 µM (inactive) and 99.5 µM (inactive); with HOP-62 it was 5.94 µM (inactive); in the experiment with NCI-H460, 6.71 µM (inactive); with OVCAR-3 it was 7.46 µM (inactive). Besides, the GI50 in the experiment with RXF 393 was 5.08 µM (inactive); in the experiment with SF-268 it was 74.6 µM (inactive) and 8.05 µM (inactive); in the experiment with SF-539, 20.1 µM (inactive) and 4.78 µM (inactive); with SNB-19, 17.4 µM (inactive) and 6.61 µM (inactive); with SNB-75, 43.2 µM (inactive) and 6.55 µM (inactive).
In the case of `O=C1CCC2(c3ccccc3)Nc3ccccc3N12` (stereo not drawn), the GI50 with A549 was > 100 µM (inactive); with ACHN, > 100 µM (inactive); in the experiment on HCT-15 it was more than 100 µM; in the experiment with HL-60, > 100 µM (inactive); with HOP-62, > 100 µM (inactive); in the experiment on MOLT-4 it was > 100 µM (inactive). Also, the GI50 in the experiment with NCI-H226, in the experiment on NCI-H460, in the experiment with OVCAR-3, in the experiment with RXF 393, in the experiment with SF-268 and in the experiment with SF-539 was > 100 µM (inactive) each time. The GI50 with SK-MEL-28, in the experiment with SN12C, in the experiment with SNB-75 and with UO-31 was > 100 µM (inactive) throughout.
As to `CCCCCCCCCCCCCCCCCCOCC1(COP(=O)([O-])OCC[N+](C)(C)C)CCCO1` (stereo not drawn), the GI50 with A549 is 7.6 µM (inactive); in the experiment with ACHN it was 6.37 µM (inactive); with HL-60, 2.18 µM (inactive); in the experiment with HOP-62, 2.99 µM (inactive); in the experiment on MOLT-4, 2.2 µM (inactive); in the experiment on NCI-H226 it was 5.01 µM (inactive). The GI50 with NCI-H460 is 1.57 µM (inactive); in the experiment on OVCAR-3 it was 4.22 µM (inactive); in the experiment on RXF 393 it was 0.393 µM (active); with SF-268 it was 5.87 µM (inactive); in the experiment on SF-539, 15.8 µM (inactive); in the experiment with SK-MEL-28 it was 18.2 µM (inactive). The GI50 with SN12C is 2.2 µM (inactive); with SNB-19 it was 3.7 µM (inactive); in the experiment on SNB-75, 5.56 µM (inactive); with UO-31, 10.2 µM (inactive).
Consider `O=C(O)/C(Cl)=C(\Cl)C(=O)Nc1ccc(Cl)c(Cl)c1Cl`, for which the GI50 in the experiment with A549 was 18.5 µM (inactive); in the experiment with ACHN, 18.1 µM (inactive); in the experiment on HCT-15 it was 19.4 µM; with HL-60 it was 21.4 µM (inactive); with HOP-62, 29.5 µM (inactive); in the experiment with MOLT-4, 23.8 µM (inactive). In addition, the GI50 was 17.5 µM (inactive) in the experiment with NCI-H226; 21.8 µM (inactive) in the experiment with NCI-H460; 19 µM (inactive) in the experiment on OVCAR-3; 25 µM (inactive) with SF-268; 19.1 µM (inactive) in the experiment on SF-539; 27.9 µM (inactive) in the experiment with SK-MEL-28. Besides, the GI50 in the experiment with SN12C was 20.9 µM (inactive); in the experiment with SNB-19, 15.3 µM (inactive); with SNB-75, 18.8 µM (inactive); in the experiment with UO-31, 16.3 µM (inactive).
As for `N#Cc1ccccc1Nc1ccccc1S`, the GI50 was 30.7 µM (inactive) with A549; 51.1 µM (inactive) in the experiment with ACHN; 25.3 µM (inactive) with HL-60; 46.7 µM (inactive) in the experiment with HOP-62; 5.4 µM (inactive) in the experiment on MOLT-4; 22.4 µM (inactive) with NCI-H226. The GI50 was 35.2 µM (inactive) with NCI-H460; 18.9 µM (inactive) with RXF 393; 31.3 µM (inactive) in the experiment on SF-268; 17.7 µM (inactive) with SF-539; 41.2 µM (inactive) in the experiment with SK-MEL-28; 31 µM (inactive) with SN12C. For the same molecule, the GI50 in the experiment with SNB-19 is 22.5 µM (inactive); with UO-31, 28.2 µM (inactive).
Regarding `COc1ccc(OC)c2c(C(=O)O)c(C(C)c3ccccc3)ccc12` (stereo not drawn), the GI50 in the experiment on A549 is > 100 µM (inactive); in the experiment with ACHN, > 100 µM (inactive); with HCT-15, more than 100 µM; with HL-60, > 100 µM (inactive); with HOP-62, > 100 µM (inactive); in the experiment with MOLT-4, > 100 µM (inactive). For the same molecule, the GI50 in the experiment on NCI-H226, in the experiment on NCI-H460, in the experiment on OVCAR-3, in the experiment on RXF 393, in the experiment with SF-268 and in the experiment with SK-MEL-28 was > 100 µM (inactive) each time. Besides, the GI50 with SN12C, in the experiment on SNB-19, in the experiment with SNB-75 and in the experiment with UO-31 was > 100 µM (inactive) in each case.
Consider `COC(=O)[C@@]12C=CC(=O)[C@H]3C[C@@H](C(C(C)C)C1)[C@]32OC` (stereo partly drawn), for which the GI50 in the experiment on A549 is > 100 µM (inactive); in the experiment with ACHN it was > 100 µM (inactive); with HCT-15, more than 100 µM; in the experiment on HL-60, > 100 µM (inactive); in the experiment on HOP-62, > 100 µM (inactive); in the experiment with MOLT-4, > 100 µM (inactive). For the same molecule, the GI50 with NCI-H460, with OVCAR-3, in the experiment on RXF 393, in the experiment with SF-268, in the experiment with SF-539 and in the experiment on SK-MEL-28 was > 100 µM (inactive) each time. Further, the GI50 in the experiment on SN12C, with SNB-19 and in the experiment on SNB-75 was > 100 µM (inactive) each time.
Consider `COc1cc(Br)c(/C=N\c2cccc3ccc(OS(=O)(=O)c4cccc([N+](=O)[O-])c4)cc23)cc1OC`, for which the GI50 in the experiment on A549 is 52.6 µM (inactive); in the experiment on ACHN it was 32.8 µM (inactive); in the experiment on HCT-15, 24.5 µM; in the experiment with HOP-62, 34.4 µM (inactive); in the experiment on MOLT-4, 8.18 µM (inactive); with NCI-H226 it was 20.4 µM (inactive). For the same molecule, the GI50 was 54.8 µM (inactive) with NCI-H460; 32.7 µM (inactive) in the experiment on OVCAR-3; 16.3 µM (inactive) with RXF 393; 19.4 µM (inactive) in the experiment with SF-268; 16.9 µM (inactive) in the experiment with SF-539; 6.52 µM (inactive) in the experiment on SK-MEL-28. For the same molecule, the GI50 in the experiment on SN12C is 33.9 µM (inactive); with SNB-19, 60.1 µM (inactive); in the experiment on UO-31, 20.1 µM (inactive).
For the molecule `C=CCc1cc2cccc(OC)c2oc1=O`, the GI50 in the experiment on A549 is > 100 µM (inactive); with ACHN, > 100 µM (inactive); with HCT-15, more than 100 µM; with HL-60, 34.8 µM (inactive); in the experiment on HOP-62, > 100 µM (inactive); in the experiment with MOLT-4, 63.4 µM (inactive). The GI50 in the experiment with NCI-H226, in the experiment on NCI-H460, in the experiment with OVCAR-3, in the experiment on SF-268, in the experiment on SF-539 and in the experiment with SK-MEL-28 was > 100 µM (inactive) throughout. The GI50 in the experiment with SN12C was > 100 µM (inactive); in the experiment on SNB-19, > 100 µM (inactive); in the experiment with SNB-75, 87.5 µM (inactive); in the experiment with UO-31 it was 1.19 µM (inactive).

The record behind these values is ChEMBL document CHEMBL1201862, “PubChem BioAssay data set” (2004).
